Measured values: US12286443B2, “Bycyclic JAK inhibitors and uses thereof” (Insilico Medicine IP Limited, priority 2019, dated 2025)

system: Hut-78 cells; experiment: Inhibition in Hut-78 cells (IL-2 stimulated, HTRF); assay type: cell-based; conditions: Homo sapiens, HuT78; compound 2 hours at 37° C., then IL-2 100 ng/mL 10 min; HTRF; read-out: Hut-78 cells IC50
Procedure: Exemplary compounds were assayed to determine potency in inhibiting Hut-78 cells by determining IC50 values.
Hut-78 cells were cultures in IMDM+20% FBS medium. Cells were maintained in log phase before the assay. Cell pellets were collected and resuspended in serum-free and phenol-free RPMI 1640 medium. 40,000 cells/well (10 μL) were seeded in each well of a 384-well plate and incubated with and without compound for 2 hours at 37° C. and 5% C02. IL-2 was added (2 μL, final concentration 100 ng/mL) and the mixture was incubated for 10 min. Cells were lysed by adding 4 μL labeled antibodies and the mixture was incubated overnight. The plate was read using the HTRF protocol on an Envision plate reader. The data was analyzed using XL-fit software (Supplier: ID business solutions Ltd.; Software version: XL fit 5.0). Inhibition %=(Max−Sample value)/(Max−Min)*100.
In the table, “A” indicates an IC50 of less than 0.5 μM, “B” indicates an IC50 range from 0.5 μM to 1 μM; and “C” indicates an IC50 range from 1 μM to 10 μM. Also, “na” indicates data is not available.

IC50 [nM]	Compound
500 to 1000	O=C(NCCC(F)(F)F)c1noc2c1CN(c1ncnc3[nH]ccc13)CC2 [Compound 110]

target: T1, TYK2 (Homo sapiens, UniProt P29597); experiment: Inhibition of TYK2 kinase, LANCE Ultra TR-FRET assay; assay type: biochemical; conditions: 4 nM TYK2, 2x ATP 30 μM, 15 min pre-incubation, 90 min reaction, 23° C., read-out: tyk IC50
T1 construct: purchased Invitrogen PR8440C
Procedure: (§1) Exemplary compounds were assayed to determine potency in inhibiting activity of JAK1-3 and TYK2 kinases by determining IC50 values.
(§2) The sources of test materials and equipment are as follows: JAK1 (Invitrogen, Cat. No PV4775), JAK2 (Invitrogen, Cat. No PV4210), JAK3 (Invitrogen, Cat. No PV4080), TYK2 (Invitrogen, Cat. No PR8440C), ATP (Sigma, Cat. No. A7699-1G), DMSO (Sigma, Cat. No. D2650), DTT (Sigma, Cat. No. 43815), 384 wells_compound plate (Greiner, Cat. No. 781280), 384 wells_assay plate (Perkin Elmer, Cat. No. 6007299), LANCE Ultra ULight™-JAK-1 peptide (Perkin Elmer, Cat. No. TRF0121), LANCET™ Eu-W1024 Anti-phosphotyrosine (PT66) (Perkin Elmer, Cat. No. AD0069), LANCET™ Detection Buffer(Perkin Elmer, Cat. No. CR97-100).
(§3) The concentrations of test compounds varied from 100 μM to 1.7 nM with 3-fold dilution, 11 points, in duplicates while the concentrations of the reference compound, Tofacitinib, varied from 1 μM to 0.017 nM with 3-fold dilution, 11 points, in duplicates.
(§4) The assay buffer contained 50 mM HEPES (pH 7.5), 0.01% Brij-35, 10 mM MgCl2, 1 mM EDTA, 2 mM DTT. Incubations were carried out at 23° C.
(§5) Prior to the assay, enzyme, peptide substrate and serially diluted test compounds were pre-incubated together in assay buffer (5 μL) for 15 minutes (peptide substrate concentration: 50 nM; JAK enzyme concentrations: 2 nM JAK1; […]; […] and 4 nM TYK2). And the assay was initiated by the addition of 5 μL assay buffer containing 2× final ATP concentration (these are the 2×ATP concentrations: 76 μM JAK1; 24 μM JAK2; 8 μM JAK3 and 30 μM TYK2). Following the 90-minute incubation, antibody conjugated with Eu is dissolved in detection buffer to add into wells and then incubated for 60 minutes. The 10 μL detection buffer contains EDTA to stop the enzymatic reaction. The plate is analyzed by Perkin Elmer Envision on TR-FRET mode. The high ratio of 665/615 represents no inhibition of kinase reaction while the low ratio of 665/615 represents complete inhibition of kinase reaction.
(§6) Curves are fit by XLFIT5 as inhibition rate % vs. log [compound concentration] using 4 parameters logistic model 205.
(§7) In the table, “A” indicates an IC50 of less than 100 nM, “B” indicates an IC50 range from 100 nM to 500 nM; “C” indicates an IC50 range from 500 nM to 2 μM; and “D” indicates an IC50 greater than 2 μM. Also, “na” indicates data is not available.

T1 sequence (P29597 whole entry): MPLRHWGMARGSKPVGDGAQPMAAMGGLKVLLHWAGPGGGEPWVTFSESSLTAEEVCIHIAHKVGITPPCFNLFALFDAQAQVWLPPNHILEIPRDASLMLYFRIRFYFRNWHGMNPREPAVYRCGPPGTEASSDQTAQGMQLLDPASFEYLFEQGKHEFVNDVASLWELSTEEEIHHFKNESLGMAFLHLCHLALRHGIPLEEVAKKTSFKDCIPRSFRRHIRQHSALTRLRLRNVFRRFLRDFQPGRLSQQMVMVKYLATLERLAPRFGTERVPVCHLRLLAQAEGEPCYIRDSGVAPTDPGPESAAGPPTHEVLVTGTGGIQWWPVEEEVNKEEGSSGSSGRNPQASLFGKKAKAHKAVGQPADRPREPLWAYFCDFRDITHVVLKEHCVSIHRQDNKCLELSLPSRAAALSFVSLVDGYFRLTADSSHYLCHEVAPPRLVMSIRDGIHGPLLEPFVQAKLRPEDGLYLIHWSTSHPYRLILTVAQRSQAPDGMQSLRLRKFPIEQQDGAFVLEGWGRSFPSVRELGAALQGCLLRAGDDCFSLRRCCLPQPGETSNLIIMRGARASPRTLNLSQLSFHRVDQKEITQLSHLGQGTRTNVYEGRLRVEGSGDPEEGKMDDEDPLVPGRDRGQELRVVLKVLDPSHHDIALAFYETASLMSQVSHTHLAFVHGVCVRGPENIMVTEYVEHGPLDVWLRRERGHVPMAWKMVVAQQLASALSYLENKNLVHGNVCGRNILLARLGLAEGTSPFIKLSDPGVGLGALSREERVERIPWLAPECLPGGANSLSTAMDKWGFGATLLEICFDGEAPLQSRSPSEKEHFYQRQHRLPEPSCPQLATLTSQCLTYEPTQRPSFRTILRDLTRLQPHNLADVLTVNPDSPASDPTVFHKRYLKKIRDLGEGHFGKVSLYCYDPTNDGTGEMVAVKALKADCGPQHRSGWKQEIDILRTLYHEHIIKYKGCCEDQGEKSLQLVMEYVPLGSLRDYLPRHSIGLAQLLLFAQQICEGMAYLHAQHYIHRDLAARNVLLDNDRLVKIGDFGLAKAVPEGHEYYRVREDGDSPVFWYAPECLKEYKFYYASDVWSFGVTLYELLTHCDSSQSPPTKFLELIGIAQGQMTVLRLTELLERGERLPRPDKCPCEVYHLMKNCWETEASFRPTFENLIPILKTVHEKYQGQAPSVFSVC

Compound	IC50 [nM]
O=C(NCCN1CCS(=O)(=O)CC1)c1noc2c1CN(c1ncnc3[nH]ccc13)CC2 [Compound 161]	> 2000
CS(=O)(=O)N1CCCC1CCNC(=O)c1noc2c1CN(c1ncnc3[nH]ccc13)CC2 (stereo not shown) [Compound 164]	> 2000
O=C(NCCN1CCC1)c1noc2c1CN(c1ncnc3[nH]ccc13)CC2 [Compound 152]	> 2000

Second part, the compound after the results:

IC50 [nM]	Compound
100 to 500	O=C(NCCC(F)(F)F)c1noc2c1CN(c1ncnc3[nH]ccc13)CC2 [Compound 110]
> 2000	O=C(NCCC(F)(F)F)c1nn(CCCc2ccccn2)c2c1CN(c1ncnc3[nH]ccc13)CC2 [Compound 108]
> 2000	O=C(NCCC(F)(F)F)c1nn(C2CCC2)c2c1CN(c1ncnc3[nH]ccc13)CC2 [Compound 117]

target: T2, JAK3 (Homo sapiens, UniProt P52333); experiment: Inhibition of JAK3 kinase, LANCE Ultra TR-FRET assay; assay type: biochemical; conditions: 2x ATP 8 μM, 15 min pre-incubation, 90 min reaction, 23° C.
T2 construct: purchased Invitrogen PV4080
T2 sequence (P52333 1-1124): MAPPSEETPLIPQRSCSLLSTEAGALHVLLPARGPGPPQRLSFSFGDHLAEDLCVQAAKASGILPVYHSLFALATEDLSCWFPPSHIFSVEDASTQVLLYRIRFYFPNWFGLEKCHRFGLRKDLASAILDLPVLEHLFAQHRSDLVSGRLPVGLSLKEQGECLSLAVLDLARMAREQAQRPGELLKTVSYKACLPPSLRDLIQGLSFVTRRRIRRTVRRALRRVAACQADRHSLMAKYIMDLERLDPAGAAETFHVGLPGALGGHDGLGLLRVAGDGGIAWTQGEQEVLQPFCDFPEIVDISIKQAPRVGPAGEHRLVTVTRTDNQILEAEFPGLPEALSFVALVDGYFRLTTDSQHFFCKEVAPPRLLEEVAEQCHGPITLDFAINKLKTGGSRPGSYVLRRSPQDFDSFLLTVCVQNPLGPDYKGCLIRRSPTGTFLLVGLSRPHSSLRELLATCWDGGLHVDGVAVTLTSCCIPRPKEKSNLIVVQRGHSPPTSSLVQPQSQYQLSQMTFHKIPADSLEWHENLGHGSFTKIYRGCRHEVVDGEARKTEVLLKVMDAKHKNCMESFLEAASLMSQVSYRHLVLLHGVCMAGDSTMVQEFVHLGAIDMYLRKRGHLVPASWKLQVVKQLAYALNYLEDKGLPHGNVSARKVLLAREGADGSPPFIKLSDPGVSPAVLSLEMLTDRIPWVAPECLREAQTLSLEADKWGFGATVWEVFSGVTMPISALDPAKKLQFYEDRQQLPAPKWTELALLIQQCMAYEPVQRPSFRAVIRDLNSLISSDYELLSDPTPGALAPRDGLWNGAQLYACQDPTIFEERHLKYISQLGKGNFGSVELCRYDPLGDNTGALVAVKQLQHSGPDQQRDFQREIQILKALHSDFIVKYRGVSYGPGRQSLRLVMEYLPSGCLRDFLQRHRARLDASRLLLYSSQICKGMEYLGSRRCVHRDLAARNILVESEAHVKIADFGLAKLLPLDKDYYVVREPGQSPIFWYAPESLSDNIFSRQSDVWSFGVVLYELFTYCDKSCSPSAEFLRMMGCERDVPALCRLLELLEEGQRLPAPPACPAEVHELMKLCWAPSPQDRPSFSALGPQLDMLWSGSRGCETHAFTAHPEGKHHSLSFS
Procedure: as §1, §2, §3, §4, §5, §6, §7

Compound	IC50 [nM]
O=C(NCCN1CCS(=O)(=O)CC1)c1noc2c1CN(c1ncnc3[nH]ccc13)CC2 [Compound 161]	500 to 2000
CS(=O)(=O)N1CCCC1CCNC(=O)c1noc2c1CN(c1ncnc3[nH]ccc13)CC2 (stereo not shown) [Compound 164]	100 to 500
O=C(NCCN1CCC1)c1noc2c1CN(c1ncnc3[nH]ccc13)CC2 [Compound 152]	> 2000

Other lines, results leading:

IC50 [nM]	Compound
< 100	O=C(NCCC(F)(F)F)c1noc2c1CN(c1ncnc3[nH]ccc13)CC2 [Compound 110]
100 to 500	O=C(NCCC(F)(F)F)c1nn(CCCc2ccccn2)c2c1CN(c1ncnc3[nH]ccc13)CC2 [Compound 108]
< 100	O=C(NCCC(F)(F)F)c1nn(C2CCC2)c2c1CN(c1ncnc3[nH]ccc13)CC2 [Compound 117]

target: T3, JAK1 (Homo sapiens, UniProt P23458); experiment: Inhibition of JAK1 kinase, LANCE Ultra TR-FRET assay; assay type: biochemical; conditions: 2 nM JAK1, 2x ATP 76 μM, 15 min pre-incubation, 90 min reaction, 23° C.
T3 construct: purchased Invitrogen PV4775
Procedure: as §1, §2, §3, §4, §5, §6, §7

T3 sequence (P23458 whole entry): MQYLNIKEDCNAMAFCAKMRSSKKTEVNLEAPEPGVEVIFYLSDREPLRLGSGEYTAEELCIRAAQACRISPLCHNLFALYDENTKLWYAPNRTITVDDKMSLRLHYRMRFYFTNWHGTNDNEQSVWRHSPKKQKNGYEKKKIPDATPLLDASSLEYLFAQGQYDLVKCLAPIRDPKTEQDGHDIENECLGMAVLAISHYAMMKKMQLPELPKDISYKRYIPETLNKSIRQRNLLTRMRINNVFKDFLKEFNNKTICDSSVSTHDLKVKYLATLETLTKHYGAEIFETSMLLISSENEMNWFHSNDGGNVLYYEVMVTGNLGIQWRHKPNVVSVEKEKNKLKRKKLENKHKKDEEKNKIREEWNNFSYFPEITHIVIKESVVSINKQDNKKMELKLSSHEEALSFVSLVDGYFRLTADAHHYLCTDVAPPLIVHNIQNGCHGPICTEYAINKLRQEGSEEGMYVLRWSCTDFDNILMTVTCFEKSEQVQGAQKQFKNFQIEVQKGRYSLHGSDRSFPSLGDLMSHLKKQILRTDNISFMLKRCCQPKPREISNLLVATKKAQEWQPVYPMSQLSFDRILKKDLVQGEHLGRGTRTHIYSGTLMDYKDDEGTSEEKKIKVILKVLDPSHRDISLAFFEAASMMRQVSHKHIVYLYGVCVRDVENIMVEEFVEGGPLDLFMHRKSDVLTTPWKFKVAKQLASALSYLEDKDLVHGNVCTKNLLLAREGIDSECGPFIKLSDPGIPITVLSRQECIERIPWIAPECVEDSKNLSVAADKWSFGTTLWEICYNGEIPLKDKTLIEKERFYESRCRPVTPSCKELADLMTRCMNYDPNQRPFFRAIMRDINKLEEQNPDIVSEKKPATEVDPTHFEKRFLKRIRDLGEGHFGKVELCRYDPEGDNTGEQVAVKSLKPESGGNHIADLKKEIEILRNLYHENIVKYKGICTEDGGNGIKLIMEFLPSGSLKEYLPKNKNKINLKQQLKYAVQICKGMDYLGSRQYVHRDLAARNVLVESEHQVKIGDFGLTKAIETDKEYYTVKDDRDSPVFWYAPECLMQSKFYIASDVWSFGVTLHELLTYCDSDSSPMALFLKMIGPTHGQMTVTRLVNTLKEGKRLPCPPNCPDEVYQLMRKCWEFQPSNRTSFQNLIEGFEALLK

Compound	IC50 [nM]
O=C(NCCN1CCS(=O)(=O)CC1)c1noc2c1CN(c1ncnc3[nH]ccc13)CC2 [Compound 161]	500 to 2000
CS(=O)(=O)N1CCCC1CCNC(=O)c1noc2c1CN(c1ncnc3[nH]ccc13)CC2 (stereo not shown) [Compound 164]	500 to 2000
O=C(NCCN1CCC1)c1noc2c1CN(c1ncnc3[nH]ccc13)CC2 [Compound 152]	> 2000

Next, values leading:

IC50 [nM]	Compound
< 100	O=C(NCCC(F)(F)F)c1noc2c1CN(c1ncnc3[nH]ccc13)CC2 [Compound 110]
> 2000	O=C(NCCC(F)(F)F)c1nn(CCCc2ccccn2)c2c1CN(c1ncnc3[nH]ccc13)CC2 [Compound 108]
100 to 500	O=C(NCCC(F)(F)F)c1nn(C2CCC2)c2c1CN(c1ncnc3[nH]ccc13)CC2 [Compound 117]

target: T4, JAK2 (Homo sapiens, UniProt O60674); experiment: Inhibition of JAK2 kinase, LANCE Ultra TR-FRET assay; assay type: biochemical; conditions: 2x ATP 24 μM, 15 min pre-incubation, 90 min reaction, 23° C.
T4 construct: purchased Invitrogen PV4210
Procedure: as §1, §2, §3, §4, §5, §6, §7

T4 sequence (O60674 whole entry): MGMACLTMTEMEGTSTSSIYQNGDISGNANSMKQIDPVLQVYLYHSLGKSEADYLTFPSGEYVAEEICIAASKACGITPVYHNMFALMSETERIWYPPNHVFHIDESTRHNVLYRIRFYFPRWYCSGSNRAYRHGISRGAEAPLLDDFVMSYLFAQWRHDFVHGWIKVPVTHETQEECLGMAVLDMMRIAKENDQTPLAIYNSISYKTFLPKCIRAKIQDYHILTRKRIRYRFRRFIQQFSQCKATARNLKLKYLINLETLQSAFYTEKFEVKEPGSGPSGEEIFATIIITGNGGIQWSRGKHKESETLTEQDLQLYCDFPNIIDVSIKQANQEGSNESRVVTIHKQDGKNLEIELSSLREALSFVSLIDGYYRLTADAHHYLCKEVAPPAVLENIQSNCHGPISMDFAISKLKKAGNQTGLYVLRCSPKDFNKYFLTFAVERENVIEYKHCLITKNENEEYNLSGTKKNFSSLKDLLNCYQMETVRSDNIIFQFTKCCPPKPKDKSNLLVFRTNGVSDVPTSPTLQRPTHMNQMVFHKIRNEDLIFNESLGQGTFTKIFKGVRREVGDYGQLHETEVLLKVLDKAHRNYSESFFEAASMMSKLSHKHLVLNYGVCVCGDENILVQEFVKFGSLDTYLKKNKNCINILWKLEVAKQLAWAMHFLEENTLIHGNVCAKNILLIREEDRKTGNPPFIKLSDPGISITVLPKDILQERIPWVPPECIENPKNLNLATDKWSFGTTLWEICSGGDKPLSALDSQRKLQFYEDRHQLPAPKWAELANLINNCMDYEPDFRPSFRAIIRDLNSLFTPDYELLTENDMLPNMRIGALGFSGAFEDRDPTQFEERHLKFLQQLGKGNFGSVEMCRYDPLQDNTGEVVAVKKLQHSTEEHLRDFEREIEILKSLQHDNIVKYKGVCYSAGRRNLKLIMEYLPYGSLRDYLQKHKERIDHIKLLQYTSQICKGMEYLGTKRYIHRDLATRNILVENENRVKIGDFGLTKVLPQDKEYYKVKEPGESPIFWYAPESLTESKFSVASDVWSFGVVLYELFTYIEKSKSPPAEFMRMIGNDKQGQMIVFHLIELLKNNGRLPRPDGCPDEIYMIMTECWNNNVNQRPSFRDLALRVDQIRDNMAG

Compound	IC50 [nM]
O=C(NCCN1CCS(=O)(=O)CC1)c1noc2c1CN(c1ncnc3[nH]ccc13)CC2 [Compound 161]	> 2000
CS(=O)(=O)N1CCCC1CCNC(=O)c1noc2c1CN(c1ncnc3[nH]ccc13)CC2 (stereo not shown) [Compound 164]	> 2000
O=C(NCCN1CCC1)c1noc2c1CN(c1ncnc3[nH]ccc13)CC2 [Compound 152]	> 2000

More lines, now with the values ahead:

IC50 [nM]	Compound
< 100	O=C(NCCC(F)(F)F)c1noc2c1CN(c1ncnc3[nH]ccc13)CC2 [Compound 110]
> 2000	O=C(NCCC(F)(F)F)c1nn(CCCc2ccccn2)c2c1CN(c1ncnc3[nH]ccc13)CC2 [Compound 108]
500 to 2000	O=C(NCCC(F)(F)F)c1nn(C2CCC2)c2c1CN(c1ncnc3[nH]ccc13)CC2 [Compound 117]
